These results are taken from US20250290915A1, “METHOD FOR PREDICTING RESPONSIVENESS TO THERAPY” (CANCERTAIN LIMITED, priority 2022, published 2025).

Holding throughout (format): cell-based, human
The test system of assay [1] is Cancer Cells from tissue sample (CSCs, tumour marker+ cells) of a patient with GI cancer (Cholangio Carcinoma, stage 4). Kind of assay: Drug response score assay on tissue sample, Example 9. Conditions: for effectiveness on Cancer Cells from tissue sample under laboratory conditions: GI cancer (Cholangio Carcinoma) tissue sample; for Drug response score, conc. 1 / Drug response score, conc. 2 / Drug response score, conc. 3 / Drug response score, conc. 4 / Drug sensitivity as calculated by the assay, Tissue: tissue sample; for Drug response score, conc. 1: conc. 1 per Table 27B: Pem 20, Niv 20, Atez 100, Pacli 0.05, Irino 5, Beva 1 μg/ml, Len 50, 5-FU 250 ng/ml; for Drug response score, conc. 2: conc. 2 per Table 27B: Pem 40, Niv 40, Atez 200, Pacli 0.1, Irino 10, Beva 2 μg/ml, Len 100, 5-FU 500 ng/ml; for Drug response score, conc. 3: conc. 3 per Table 27B: Pem 100, Niv 80, Atez 400, Pacli 0.2, Irino 25, Beva 4 μg/ml, Len 200, 5-FU 1000 ng/ml; for Drug response score, conc. 4: conc. 4 per Table 27B: Pem 160, Niv 160, Atez 800, Pacli 1, Irino 50, Beva 8 μg/ml, Len 400, 5-FU 2000 ng/ml; for Drug sensitivity as calculated by the assay, Tissue: interpretation based on Drug Response Scores. As for the experimental part:
Where a tissue sample was provided by each subject, cancer stem cells (CSCs, CD133^+), were isolated from said sample. Tumour marker cells were further isolated from each tissue sample. The remaining cells were designated tumour marker^+ cells.
First, disaggregation of the tissue samples was carried out. Disaggregation was dependent on the size of the tissue sample and the method of retrieval: • EBUS (Endobronchial Ultrasound Scan and Biopsy)—very small fragments of tissue in solution-spun at 1200 rpm for 5 minutes to collect tissue pellet • Bronchoscopy-larger fragments with larger amount of blood vessels • Broncho-lavage-similar to EBUS, spun at 1200 rpm for 5 minutes to collet tissue pellet
Once a pellet of tissue obtained, DMEM added to the tissue pellet and the material forced through a […] Smart strainer. Once a cell suspension was achieved, this was spun at 1200 rpm for 5 minutes and the supernatant removed. The cells were then resuspended to a volume of 60 μl.
20 μl of FcR block and 20 μl of CD133 microbeads were added to the resuspended cells, followed by incubation for 15 minutes at 4° C. The cells were then processed using an AutoMACS machine. This separates the […] into CD133^+ and CD133^− cells in 2 separate falcons. The falcon tubes are then centrifuged at 1200 rpm for 5 minutes.
The supernatant was removed from the CD133+falcon tube, and the cells resuspended in DMEM with 2 μl Cell Tox, 2 μl MT and 2 μl MT. 20 μl of the resuspended […] was then plated in each well which will contain an immunotherapy treatment.
The supernatant was removed from the CD133^− falcon tube, and the CD133^− cells contacted with 40 μl of a tumour separation microbeads cocktail containing microbeads bound to anti-CD31, anti-CD45, anti-Glycophorin-A (Gly-A) and an anti-fibroblast antibody.
This cocktail is used to separate out tumour marker cells using MACS, by separating out CD31^+, CD45^+ and Gly-A^+ cells. In addition, anti-fibroblast antibody-labelled beads are also used. The cocktail is added to the CD133^− falcon tube, followed by incubation for 15 minutes at 4° C. MACS is carried out using an AutoMACS machine. This cells which are not bound by the CD31, CD45, Gly-A and anti-fibroblast antibody beads are the tumour marker^+ cells.
(§1) The different cell types were each divided equally into populations, depending on the number of drugs/concentrations to be tested and plated on a cell-culture plate pre-coated with a scaffold of polycaprolactone (PCL) electrospun fibres and incubated at 37° C., 5% CO2, for 5 to (typically 10) minutes to facilitate cell attachment. After attachment, an initial imaging step was carried out using the RealTime-Glo™ MT assay from Promega (Catalogue No. G9711)) and the CellTox™ Green Cytotoxicity Assay (Promega, Catalogue No. G8741), carried out according to manufacturer's instructions. Following this initial imagining, the immunotherapeutic and/or chemotherapeutic agents were added to the cell populations as indicated below. After 10 minutes, the imagining step was repeated. The cell populations were then incubated at 37° C., 5% CO2 for 48 hours. The imaging step was then repeated. The cell populations were then re-dosed with the same immunotherapeutic and/or chemotherapeutic agents as indicated below, and incubated at 37° C., 5% CO2 for a further 48 hours. After this second 48 hour incubation, the imagining step was repeated for a final time.
At the end of this culture period, dose response scores were calculated using a normalized drug response metric as described in Gupta et al. (Communications Biology volume 3, Article number: 42 (2020), https://doi.org/10.1038/s42003-020-0765-z). The start readout for a given immunotherapeutic or chemotherapeutic agent at a given concentration was the to readout for said immunotherapeutic or chemotherapeutic agent at a specified concentration. […]

Assay [2] deals with Circulating tumour cells (CTCs) from a patient with GI cancer (Cholangio Carcinoma, stage 4). Kind of assay: Drug response score assay on blood sample, Example 9. Conditions: for effectiveness on Circulating Tumour Cells under laboratory conditions: GI cancer (Cholangio Carcinoma) blood sample; for Drug response score from blood sample, conc. 1: conc. 1 of each drug as in Table 27; for Drug response score from blood sample, conc. 1 / Drug response score from blood sample, conc. 2 / Drug response score from blood sample, conc. 3 / Drug response score from blood sample, conc. 4: t96h; for Drug response score from blood sample, conc. 2: conc. 2 of each drug as in Table 27; for Drug response score from blood sample, conc. 3: conc. 3 of each drug as in Table 27; for Drug response score from blood sample, conc. 4: conc. 4 of each drug as in Table 27; for Drug sensitivity as calculated by the assay, Blood: interpretation based on Drug Response Scores; for Drug response score from blood sample, conc. 1 / Drug response score from blood sample, conc. 2 / Drug response score from blood sample, conc. 3 / Drug response score from blood sample, conc. 4 / Drug sensitivity as calculated by the assay, Blood: blood sample. Details: key to Drug response score from blood sample, conc. 1 / Drug response score from blood sample, conc. 2 / Drug response score from blood sample, conc. 3 / Drug response score from blood sample, conc. 4: normalized drug response metric per Gupta et al. 2020. The method, then: (§2) CD45^+ cells and circulating tumour cells (CTCs) were isolated from a blood sample provided by each subject.
(§3) CD45 separation was performed by adding human CD45 microbeads (50 μl/ml blood), incubating for 15 minutes at 4° C. and then processing using an AutoMACS machine. This separates the blood sample into CD45^+ and CD45^−cells in 2 separate falcons. The falcon tubes are then centrifuged at 1200 rpm for 5 minutes.
The supernatant was removed from the CD45^+falcon tube, and the cells resuspended in DMEM with 2 μl Cell Tox, 2 μl MT and 2 μl MT. 20 μl of the resuspended CD45^+ cells was then plated in each well which will contain an immunotherapy treatment.
(§4) The supernatant was removed from the CD45^−falcon tube, and the CD45^−cells contacted with 100 μl of FcR block and 100 μl of CD326 (EpCAM) MicroBeads, followed by incubation at […] 4° C. for 30 minutes. The CD45^−cells were then processed using an AutoMACS machine to separate the EpCAM positive and negative cells into 2 separate falcon tubes. The EpCAM-cells were discarded. The supernatant was removed from the EpCAM^+ cells, and the cells resuspended in DMEM with 2 μl Cell Tox, 2 μl MT and 2 μl MT. 20 μl of the resuspended pellet was then added to all sample wells excluding a blank. After all wells are added to, a cell count was conducted on the […] to determine the number of circulating tumour cells (CTCs).
as §1
(§5) At the end of this culture period, dose response scores were calculated using a normalized drug response metric as described in Gupta et al. (Communications Biology volume 3, Article number: 42 (2020), https://doi.org/10.1038/s42003-020-0765-z). The start readout for a given immunotherapeutic or chemotherapeutic agent at a given concentration was the to readout for said immunotherapeutic or chemotherapeutic agent at a specified concentration. The end readout for a given immunotherapeutic or chemotherapeutic agent at a given concentration was the final timepoint reading (t96h) for said immunotherapeutic or chemotherapeutic agent at a specified concentration.
(§6) The positive control start readout for a given drug/concentration was the to readout for the corresponding drug at a specified concentration. The positive control end readout for the corresponding drug at a specified concentration was the final timepoint reading (t96h) for the corresponding blank well.
(§7) The negative control start and end readouts for a given immunotherapeutic or chemotherapeutic agent at a given concentration were the to and final timepoint reading (t96h) respectively for blank cell or blank immuno cell well respectively.
The sensitivity or resistance of a subject's cancer to a given immunotherapeutic or chemotherapeutic agent was determined based on the calculated drug response score as shown in Table 2. […]

Assay [3] has as its system Circulating Tumour Cells (CTCs) from a patient with colon cancer (sigmoid colon cancer). Kind of assay: Drug response score assay on CTCs from blood, Example 8. Conditions: for Drug response score, conc. 1: conc. 1 of each drug as in Table 24; for Drug response score, conc. 1 / Drug response score, conc. 2 / Drug response score, conc. 3 / Drug response score, conc. 4: CTCs, t96h; for Drug response score, conc. 2: conc. 2 of each drug as in Table 24; for Drug response score, conc. 3: conc. 3 of each drug as in Table 24; for Drug response score, conc. 4: conc. 4 of each drug as in Table 24; for Drug sensitivity as calculated by the assay (interpretation of Drug Response Scores): Table 26. Details: key to Drug response score, conc. 1 / Drug response score, conc. 2 / Drug response score, conc. 3 / Drug response score, conc. 4: normalized drug response metric (Gupta et al. 2020). As for the experimental part: as §2, §3, §4
as §1, with “After” for “The different cell types were each divided equally into populations, depending on the number of drugs/concentrations to be tested and plated on a cell-culture plate pre-coated with a scaffold of polycaprolactone (PCL) electrospun fibres and incubated at 37° C., 5% CO2, for 5 to (typically 10) minutes to facilitate cell attachment. After”
as §5, §6, §7
The sensitivity or resistance of a subject's cancer to a given immunotherapeutic or chemotherapeutic agent was determined based on the calculated drug response score as shown in Table 2.
Blood samples from a patient with colon cancer (sigmoid colon cancer) were received on 8 Mar. 2022 and tested using a 9 drug panel.
Chemotherapeutic agents were tested as in Table 24.

As to `O=c1[nH]cc(F)c(=O)[nH]1` [5 FluoroUracil], in assay [1], the “effectiveness on Cancer Cells from tissue sample under laboratory conditions” value is on record as “S+”; the “Drug response score, conc. 1” value is given as 0.9334; the “Drug response score, conc. 2” value is 0.9488; the “Drug response score, conc. 3” value stood at 0.9924. In addition, the “Drug response score, conc. 4” value in assay [1] amounted to 0.01222. For the same molecule, in assay [2], the “effectiveness on Circulating Tumour Cells under laboratory conditions” value is “S+”; the “Drug response score from blood sample, conc. 1” value is 0.4147; the “Drug response score from blood sample, conc. 2” value amounted to 0.341; the “Drug response score from blood sample, conc. 3” value was 0.422. In addition, in assay [2], the “Drug response score from blood sample, conc. 4” value is on record as 0.08131.
For `O=c1[nH]cc(F)c(=O)[nH]1` [5FU], the “Drug sensitivity as calculated by the assay, Tissue” value in assay [1] was “S+”. Further, the “Drug sensitivity as calculated by the assay, Blood” value in assay [2] is recorded as “S+”.
Turning to `Nc1nc2[nH]cc(CCc3ccc(C(=O)N[C@@H](CCC(=O)O)C(=O)O)cc3)c2c(=O)[nH]1` [Pemetrexed], in assay [3], the “Drug response score, conc. 1” value was 5.1780; the “Drug response score, conc. 2” value is −1.0000; the “Drug response score, conc. 3” value is −1.0000; the “Drug response score, conc. 4” value is given as −1.0000. Also, in assay [3] (sigmoid colon cancer CTCs), the “effectiveness on Circulating Tumour Cells under laboratory conditions” value was “S+++” and the “Drug sensitivity as calculated by the assay (interpretation of Drug Response Scores)” value is recorded as “Sensitive (S+++)”.
For the molecule `Cn1nnc2c(C(N)=O)ncn2c1=O` [Temozolamide], in assay [3], the “Drug response score, conc. 1” value is −1.0000; the “Drug response score, conc. 2” value amounted to 0.0367; the “Drug response score, conc. 3” value was −0.1421; the “Drug response score, conc. 4” value is −0.4687. Also, the “Drug sensitivity as calculated by the assay (interpretation of Drug Response Scores)” value in assay [3] (sigmoid colon cancer CTCs) is given as “Sensitive (S++)”.
Regarding Atezolizumab, in assay [1], the “effectiveness on Cancer Cells from tissue sample under laboratory conditions” value is given as “S+”; the “Drug sensitivity as calculated by the assay, Tissue” value is on record as “S+”; the “Drug response score, conc. 1” value turned out to be 0.8904; the “Drug response score, conc. 2” value was 0.9047. In addition, in assay [1], the “Drug response score, conc. 3” value is 0.8647 and the “Drug response score, conc. 4” value turned out to be 0.7954. For the same molecule, in assay [2], the “effectiveness on Circulating Tumour Cells under laboratory conditions” value is on record as “S++”; the “Drug response score from blood sample, conc. 1” value worked out at 0.1037; the “Drug response score from blood sample, conc. 2” value turned out to be 0.1499; the “Drug response score from blood sample, conc. 3” value was determined as 0.3493. In assay [2], the “Drug response score from blood sample, conc. 4” value turned out to be 0.4391 and the “Drug sensitivity as calculated by the assay, Blood” value was “S++”.
On to Bevacizumab, for which, in assay [1], the “Drug response score, conc. 1” value came to 0.93; the “Drug response score, conc. 2” value is on record as 0.9294; the “Drug response score, conc. 3” value was found to be 0.932; the “Drug response score, conc. 4” value was 0.9261. In assay [2], the “Drug response score from blood sample, conc. 1” value is given as 0.4605; the “Drug response score from blood sample, conc. 2” value is given as 1.257; the “Drug response score from blood sample, conc. 3” value is reported as 1.837; the “Drug response score from blood sample, conc. 4” value is on record as 2.21.
